According to US20110039879A1, “METHODS FOR INCREASING WHITE BLOOD CELLS” (FibroGen ,Inc., priority 2007, published 2011):
Marks after values point to notes of the source that are not given here.

How the values were obtained:
[1] = test system: hematopoietic progenitor cells (HPCs); assay: Hematopoietic progenitor cells (Sca-1+/c-Kit+) in blood by FACS analysis; assay type: in vivo, Swiss-Webster mice; settings: mice, oral gavage, blood 6 h after final dosing
Protocol: (§1) To examine the effect of compounds and methods of the present invention on hematopoietic progenitor cell (HPC) and neutrophil levels, the following studies were performed. Male Swiss-Webster mice were administered various compounds of the present invention via oral gavage using a ball-tipped gavage needle. Animals treated by oral gavage received a 10 ml/kg volume of either 0.5% carboxymethyl cellulose (CMC) with 0.1% Polysorbate 80 (vehicle control) or various doses (10-100 mg/kg) of a compound of the present invention in 0.5% CMC with 0.1% Polysorbate 80. Animals were dosed once daily for 3 or 4 days.
(§2) Six hours after the final dosing, 200 μl blood samples were collected for detection of hematopoietic progenitor cells (HPCs) and neutrophils by FACS analysis using methods previously described. (See, e.g., Wang et al. (1997) J Leukoc Biol 62 503-9 and Legasse et al. (1996) J Immunol Methods 197:139-50.) Briefly, leukocytes and progenitor cells were isolated from whole blood samples following erythrocyte depletion using red blood cell lysis buffer (eBioscience) according to the manufacturer's instructions. The remaining cells were incubated for one hour with monoclonal antibodies directed against mouse Sca-1 and mouse c-Kit (cell surface markers for HPCs, BD Pharmingen), or mouse Mac-1 and mouse Gr-1 (cell surface markers for murine neutrophils, BD Pharmingen). Following incubation with the monoclonal antibodies, the cells were washed three times with sort buffer (PBS, 1% fetal bovine serum) and resuspended in sort buffer containing 50 μg/ml of propidium iodide. Samples were then analyzed for the presence and quantitation of HPCs and neutrophils by flow cytometry (FACS Calibur, Becton Dickinson). The cytometer was set to acquire 10 000 events. Two or three blood samples obtained from each animal were analyzed and the average recorded. Hematopoietic progenitor cells were determined as double positive Sca-1+/c-Kit+ cells and neutrophils were determined as double positive Mac-1+/Gr-1+ cells.

neutrophils [2] = assay: Neutrophils (Mac-1+/Gr-1+) in blood by FACS analysis; assay type: in vivo, Swiss-Webster mice; settings: mice, oral gavage, blood 6 h after final dosing
Protocol: as §1, §2

[3] = test system: hematopoietic progenitor cells (HPCs) in bone marrow; assay: Hematopoietic progenitor cells in bone marrow by FACS analysis; assay type: in vivo, Swiss-Webster mice; settings: mice, oral gavage, tibia bone marrow 6 h after final dosing
Protocol: as §2
(§3) To examine the effect of compounds and methods of the present invention on hematopoietic progenitor cell (HPC) and neutrophil levels in bone marrow, the following studies were performed. Male Swiss-Webster mice were administered various compounds of the present invention via oral gavage using a ball-tipped gavage needle. Animals treated by oral gavage received a 10 ml/kg volume of either 0.5% carboxymethyl cellulose (CMC) with 0.1% Polysorbate 80 (vehicle control) or various doses (10-100 mg/kg) of a compound of the present invention in 0.5% CMC with 0.1% Polysorbate 80. Animals were dosed once daily for 3 or 4 days. Six hours after the final dosing, bone marrow samples were taken from one tibia of each animal and suspended in buffer (PBS with 1% fetal bovine serum). Bone marrow suspensions were then filtered through nylon filters to remove stromal cells. Following filtration, the remaining cells were counted manually using a hemocytometer. Detection and quantitation of HPCs and neutrophils were performed by FACS analysis as described above in Example 1.

[4] = test system: neutrophils in bone marrow; assay: Neutrophils in bone marrow by FACS analysis; assay type: in vivo, Swiss-Webster mice; settings: mice, oral gavage, tibia bone marrow 6 h after final dosing
Protocol: as §2, §3

[5] = test system: total white blood cell (WBC); assay: Total white blood cells by complete blood count, once daily dosing 3 or 4 days; assay type: in vivo, Swiss-Webster mice; settings: mice, oral gavage, blood 6 h after final dosing
Protocol: as §1, with “increasing white blood cells,” for “hematopoietic progenitor cell (HPC) and neutrophil levels,”, “In one series of experiments, male” for “Male”, “days. Six hours after the final dosing, 200 μl blood samples were collected and total white blood cell, neutrophil, and lymphocyte levels were measured by complete blood count (CBC) using a CellDyn cell analyzer (Abbott Laboratories).” for “days.”

neutrophils [6] = assay: Neutrophils by complete blood count, once daily dosing 3 or 4 days; assay type: in vivo, Swiss-Webster mice; settings: mice, oral gavage, blood 6 h after final dosing, CBC
Protocol: as §1, with “increasing white blood cells,” for “hematopoietic progenitor cell (HPC) and neutrophil levels,”, “In one series of experiments, male” for “Male”, “days. Six hours after the final dosing, 200 μl blood samples were collected and total white blood cell, neutrophil, and lymphocyte levels were measured by complete blood count (CBC) using a CellDyn cell analyzer (Abbott Laboratories).” for “days.”

lymphocytes [7] = assay: Lymphocytes by complete blood count, once daily dosing 3 or 4 days; assay type: in vivo, Swiss-Webster mice; settings: mice, oral gavage, blood 6 h after final dosing, CBC
Protocol: as §1, with “increasing white blood cells,” for “hematopoietic progenitor cell (HPC) and neutrophil levels,”, “In one series of experiments, male” for “Male”, “days. Six hours after the final dosing, 200 μl blood samples were collected and total white blood cell, neutrophil, and lymphocyte levels were measured by complete blood count (CBC) using a CellDyn cell analyzer (Abbott Laboratories).” for “days.”

[8] = test system: total white blood cell (WBC); assay: Chemotherapy (cisplatin)-induced leukopenia, total WBC by CBC; assay type: in vivo, Sprague Dawley rats; settings: rats
Protocol: (§4) To examine the effect of compounds and methods of the present invention on increasing white blood cells, the following studies were performed. In one series of experiments, male Swiss-Webster mice were administered various compounds of the present invention via oral gavage using a ball-tipped gavage needle. Animals treated by oral gavage received a 10 ml/kg volume of either 0.5% carboxymethyl cellulose (CMC) with 0.1% Polysorbate 80 (vehicle control) or various doses (10-100 mg/kg) of a compound of the present invention in 0.5% CMC with 0.1% Polysorbate 80. Animals were dosed once daily for 3 or 4 days. […] The following study was performed to examine the effect of compounds and methods of the present invention on treatment of chemotherapy-induced leukopenia. Thirty-eight Sprague Dawley male rats (280-300 g) were obtained from Charles River Laboratories. Six rats served as healthy controls. On day 0, the remaining thirty-two rats were treated by intravenous injection (i.v.) with a single dose of cisplatin (CP) (Bedford Laboratories, Bedford Ohio) at 5 mg/kg and by oral gavage with one of the following: Compound S at 60 mg/kg; Compound B at 40 mg/kg; or vehicle 2 ml/kg. Compound was administered on day 0, day 2, and day 4 with the first dose given two hours before the CP injection. Blood samples (0.2 ml) were collected on day 4 as follows. Animals were anesthetized with isoflurane and 0.2 ml of blood was collected from the tail vein into a MICROTAINER EDTA-2K tube (Becton-Dickinson). Blood samples were processed to measure total white blood cell, neutrophil, and lymphocyte levels by CBC analysis as described above in Example 3.

neutrophils [9] = assay: Chemotherapy (cisplatin)-induced leukopenia, neutrophils by CBC; assay type: in vivo, Sprague Dawley rats; settings: rats, cisplatin 5 mg/kg i.v. day 0, compound 40 mg/kg oral gavage day 0, day 2, day 4, blood day 4
Protocol: as §4

lymphocytes [10] = assay: Chemotherapy (cisplatin)-induced leukopenia, lymphocytes by CBC; assay type: in vivo, Sprague Dawley rats; settings: rats, cisplatin 5 mg/kg i.v. day 0, compound 40 mg/kg oral gavage day 0, day 2, day 4, blood day 4
Protocol: as §4

[11] = 100 mg/kg once daily for 4 days

## Cc1nc(C(=O)NCC(=O)O)c(O)c2ccc(Oc3ccccc3)cc12 [Compound B, [(4-Hydroxy-1-methyl-7-phenoxy-isoquinoline-3-carbonyl)-amino]-acetic acid]
[1]; 60 mg/kg once daily for 3 days
  Blood HPCs: 67 cells/μl
  Blood HPCs Fold Increase Over Control: 1.5 fold
  Percent Blood HPCs: 0.7 % gated cells
  Percent Blood HPCs Fold Increase Over Control: 1.1 fold
[1]; [11]
  Blood HPCs: 126 cells/μl
  Blood HPCs Fold Increase Over Control: 7.4 fold
  Percent Blood HPCs: 1.2 % gated cells
  Percent Blood HPCs Fold Increase Over Control: 3.8 fold
Neutrophils [2]; 60 mg/kg once daily for 3 days
  Blood Neutrophils: 126 cells/μl
  Blood Neutrophils Fold Increase Over Control: 1.3 fold
  Percent Blood Neutrophils: 1.2 % gated cells
  Percent Blood Neutrophils Fold Increase Over Control: 0.9 fold
Neutrophils [2]; [11]
  Blood Neutrophils: 936 cells/μl
  Blood Neutrophils Fold Increase Over Control: 5.3 fold
  Percent Blood Neutrophils: 9.1 % gated cells
  Percent Blood Neutrophils Fold Increase Over Control: 2.7 fold
[3]; 60 mg/kg once daily for 3 days
  Percent Bone Marrow HPCs: 6.3 % gated cells
  Percent Bone Marrow HPCs Fold Increase Over Control: 1.7 fold
[3]; [11]
  Percent Bone Marrow HPCs: 7.0 % gated cells
  Percent Bone Marrow HPCs Fold Increase Over Control: 1.6 fold
[4]; 60 mg/kg once daily for 3 days
  Percent Bone Marrow Neutrophils: 34.7 % gated cells
  Percent Bone Marrow Neutrophils Fold Increase Over Control: 1.1 fold
[4]; [11]
  Percent Bone Marrow Neutrophils: 33.6 % gated cells
  Percent Bone Marrow Neutrophils Fold Increase Over Control: 1.3 fold
[5]; 60 mg/kg once daily for 3 days
  Total WBC: 8.80 10^3 cells/μl
  Total WBC % Increase Over Control: 82%
[5]; [11]
  Total WBC: 10.24 10^3 cells/μl
  Total WBC % Increase Over Control: 94%
Neutrophils [6]; 60 mg/kg once daily for 3 days
  Neutrophils: 1.28 10^3 cells/μl
  Neutrophils % Increase Over Control: 110%
Neutrophils [6]; [11]
  Neutrophils: 0.96 10^3 cells/μl
  Neutrophils % Increase Over Control: 66%
Lymphocytes [7]; 60 mg/kg once daily for 3 days
  Lymphocytes: 7.40 10^3 cells/μl
  Lymphocytes % Increase Over Control: 82%
Lymphocytes [7]; [11]
  Lymphocytes: 9.18 10^3 cells/μl
  Lymphocytes % Increase Over Control: 101%
[8]; 5 mg/kg cisplatin, Compound S 60 mg/kg or Compound B 40 mg/kg oral gavage day 0, 2, 4, day 4
  total white blood cell levels in the cisplatin-treated animals (in words): increased total white blood cell levels
[8]; cisplatin 5 mg/kg i.v. day 0, compound 40 mg/kg oral gavage day 0, day 2, day 4, blood day 4
  Total WBC: 16.8 10^3 cells/μl
[8]; cisplatin 5 mg/kg i.v. day 0, compound 40 mg/kg oral gavage day 0, day 2, day 4, blood day 4, vs healthy control, reduction not statistically significant
  Total WBC % Change from Control: −1* %
Neutrophils [9]
  Neutrophils: 2.2 10^3 cells/μl
Neutrophils [9]; vs healthy control
  Neutrophils % Change from Control: 7%
Lymphocytes [10]
  Lymphocytes: 14.7 10^3 cells/μl
Lymphocytes [10]; vs healthy control
  Lymphocytes % Change from Control: 9%
